Measurements as given in ChEMBL document CHEMBL5042535, “Structure-Based Design and Synthesis of N-Substituted 3-Amino-β-Carboline Derivatives as Potent αβ-Tubulin Degradation Agents” (J Med Chem, 2022).
Blank lines part the entries; values can stand above or below the molecule they belong to. The source made the active and inactive calls. No cut-off for these calls is given here.

Key:
A2780S [1] = test: Cytotoxicity in human A2780S assessed as inhibition in cell growth measured after 24 hrs by MTT assay; format: functional, cell-based
A2780/Taxol [2] = test: Cytotoxicity in human A2780T assessed as inhibition in cell growth measured after 24 hrs by MTT assay; format: functional, cell-based
A549/TR = test: Cytotoxicity in human A549T assessed as inhibition in cell growth measured after 24 hrs by MTT assay; format: functional, cell-based
NCI/ADR-RES = test: Cytotoxicity in human NCI-ADR-RES assessed as inhibition in cell growth measured after 24 hrs by MTT assay; format: functional, cell-based
[3] = Drug resistance index, ratio of IC50 for human A2780S cancer cell to ratio of IC50 for human A2780T cancer cell; format: functional
[4] = Drug resistance index, ratio of IC50 for human A549 cancer cell to ratio of IC50 for human A549T cancer cell; format: functional
[5] = Drug resistance index, ratio of IC50 for human MCF7 cancer cell to ratio of IC50 for human NCI-ADR-RES cancer cell; format: functional
A2780S [6] = test: Effect on microtubule network in human A2780S cells assessed as bundling of microtubule fibers near nucleus at 100 nM for 24 hrs; format: functional, cell-based
A2780S [7] = test: Antitumor activity against human A2780S cells xenografted in mouse assessed as tumor growth inhibition at 20 mg/kg, ip; format: functional; conditions: read-out: TGI
A2780/Taxol [8] = test: Antitumor activity against human A2780T cells xenografted in mouse assessed as tumor growth inhibition at 10 mg/kg, iv treated 3 times a week; format: functional; conditions: read-out: TGI
A2780/Taxol [9] = test: Antitumor activity against human A2780T cells xenografted in mouse assessed as tumor growth inhibition at 20 mg/kg, iv treated 3 times a week; format: functional; conditions: read-out: TGI
A2780/Taxol [10] = test: Antitumor activity against human A2780T cells xenografted in mouse assessed as tumor growth inhibition at 40 mg/kg, iv treated 3 times a week; format: functional; conditions: read-out: TGI
A2780/Taxol [11] = test: Antitumor activity against mouse xenografted with human A2780T cell assessed as tumor growth inhibition at 20 mg/kg, ip; format: functional; conditions: read-out: TGI
HeLa [12] = test: Induction of Alpha/beta tubulin degradation in human HeLa cells pretreated with PYR-41 at 10 uM for 1 hrs followed by compound addition measured after 16 hrs by Western blot analysis; format: cell-based
HeLa [13] = test: Induction of Alpha/beta tubulin degradation in human HeLa cells pretreated with colchicine at 10 uM for 1 hrs by Western blot analysis; format: cell-based
MCF7 [14] = test: Antiproliferative activity against human MCF7 cells assessed as reduction in cell viability measured after 24 hrs by MTT assay; format: functional, cell-based; conditions: MCF7, 24 h
HeLa [15] = test: Antiproliferative activity against human HeLa cells assessed as reduction in cell viability measured after 24 hrs by MTT assay; format: functional, cell-based
Raji = test: Antiproliferative activity against human Raji cells assessed as reduction in cell viability measured after 24 hrs by MTT assay; format: functional, cell-based
NCI-H460 = test: Antiproliferative activity against human NCI-H460 cells assessed as reduction in cell viability measured after 24 hrs by MTT assay; format: functional, cell-based; conditions: NCI-H460, 24 h
A2780S [16] = test: Antiproliferative activity against human A2780S cells assessed as reduction in cell viability measured after 24 hrs by MTT assay; format: functional, cell-based
HeLa [17] = test: Induction of Alpha/beta tubulin degradation in human HeLa cells pretreated with colchicine at 10 uM for 1 hrs followed by compound addition measured after 16 hrs by Western blot analysis; format: cell-based
HeLa [18] = test: Induction of Beta tubulin degradation in human HeLa cells pretreated with MG132 at 10 uM for 1 hrs followed by compound addition measured after 16 hrs by Western blot analysis; format: cell-based
A549 = test: Cytotoxicity in human A549 assessed as inhibition in cell growth measured after 24 hrs by MTT assay; format: functional, cell-based; conditions: A549, 24 h
MCF7 [19] = test: Cytotoxicity in human MCF7 assessed as inhibition in cell growth measured after 24 hrs by MTT assay; format: functional, cell-based; conditions: MCF7, 24 h
[20] = Half life in rat at 5 mg/kg, iv; format: ADME, organism-based; conditions: in vivo
[21] = Half life in rat at 5 mg/kg, po; format: ADME, organism-based; conditions: in vivo
[22] = Clearance in rat at 5 mg/kg, iv; format: ADME, organism-based; conditions: in vivo
[23] = Clearance in rat at 5 mg/kg, po; format: ADME, organism-based; conditions: in vivo
[24] = Volume of distribution at steady state in rat at 5 mg/kg, iv; format: ADME, organism-based; conditions: in vivo, read-out: Vdss
[25] = Volume of distribution at steady state in rat at 5 mg/kg, po; format: ADME, organism-based; conditions: in vivo
[26] = Cmax in rat plasma at 5 mg/kg, iv; format: ADME, organism-based; design: route intravenous, dose 5 mg/kg
[27] = Cmax in rat at 5 mg/kg, po; format: ADME, organism-based; design: route oral, dose 5 mg/kg; conditions: in vivo
[28] = Oral bioavailability in rat at 5 mg/kg; format: ADME, organism-based; conditions: in vivo
A2780S [29] = test: Induction of cell cycle arrest in human A2780S cells assessed as accumulation at G2/M phase at 100 nM measured after 48 hrs by flow cytometry analysis relative to control; format: functional
A2780/Taxol [30] = test: Induction of cell cycle arrest in human A2780T cells assessed as accumulation at G2/M phase at 100 nM measured after 48 hrs by flow cytometry analysis relative to control; format: functional
A2780S [31] = test: Induction of cell cycle arrest in human A2780S cells assessed as accumulation at G2/M phase at 300 nM measured after 48 hrs by flow cytometry analysis relative to control; format: functional
A2780/Taxol [32] = test: Induction of cell cycle arrest in human A2780T cells assessed as accumulation at G2/M phase at 300 nM measured after 48 hrs by flow cytometry analysis relative to control; format: functional
A2780S [33] = test: Induction of apoptosis in PTX sensitive human A2780S cells at 100 to 300 nM incubated for 48 hrs by Annexin V-FITC/PI staining based flow cytometry method; format: functional, cell-based; conditions: dose 100-300 nM
A2780/Taxol [34] = test: Induction of apoptosis in PTX resistant human A2780T cells at 100 to 300 nM incubated for 48 hrs by Annexin V-FITC/PI staining based flow cytometry method; format: functional, cell-based; conditions: dose 100-300 nM
A2780S [35] = test: Induction of apoptosis in human A2780S cells assessed as late apoptotic cells level at 30 nM incubated for 48 hrs by Annexin V-FITC/PI staining based flow cytometry (reference value: 5.2%); format: functional
A2780S [36] = test: Induction of apoptosis in human A2780S cells assessed as late apoptotic cells level at 100 nM incubated for 48 hrs by Annexin V-FITC/PI staining based flow cytometry (reference value: 5.2%); format: functional
A2780S [37] = test: Induction of apoptosis in human A2780S cells assessed as late apoptotic cells level at 300 nM incubated for 48 hrs by Annexin V-FITC/PI staining based flow cytometry (reference value: 5.2%); format: functional
Tubulin (Homo sapiens) = Tubulin (Homo sapiens) (UniProt P68371+Q9H4B7+P0DPH7+P68366+Q13509+Q71U36+P04350+Q3ZCM7+P07437+P68363+Q9BQE3+Q6PEY2+Q13885+Q9BVA1+Q9BUF5); test: Inhibition of tubulin polymerization in human A2780S cells assessed as microtubule network polymerization at 10 to 1000 nM after 24 hrs by immunofluorescence analysis; format: cell-based; conditions: dose 10-1000 nM
HUVEC [38] = test: Antimigratory activity against human HUVEC cells assessed as reduction in cell migration at upto 10 nM incubated for 24 hrs by wound healing assay; format: functional; design: scale not given: the % may be the effect or the level left; conditions: dose nM <=10
HUVEC [39] = test: Antimigratory activity against human HUVEC cells assessed as reduction in cell migration at upto 10 nM incubated for 48 hrs by wound healing assay; format: functional; design: scale not given: the % may be the effect or the level left; conditions: dose nM <=10
HUVEC [40] = test: Antimigratory activity against human HUVEC cells assessed as reduction in tumor cell migration at upto 5 nM incubated for 24 hrs by wound healing assay relative to control; format: functional; design: scale not given: the % may be the effect or the level left; conditions: dose nM <=5
HUVEC [41] = test: Antimigratory activity against human HUVEC cells assessed as reduction in cell migration at upto 5 nM incubated for 48 hrs by wound healing assay relative to control; format: functional; design: scale not given: the % may be the effect or the level left; conditions: dose nM <=5
HUVEC [42] = test: Antimigratory activity against human HUVEC cells assessed as reduction in metastasis at upto 5 nM incubated for 24 hrs by wound healing assay; format: functional, cell-based; conditions: dose nM <=5, time 24.0 hrs
HUVEC [43] = test: Antimigratory activity against human HUVEC cells assessed as reduction in metastasis at upto 5 nM incubated for 48 hrs by wound healing assay; format: functional, cell-based; conditions: dose nM <=5, time 48.0 hrs
A2780S [44] = test: Antitumor activity against human A2780S cells xenografted in mouse assessed as tumor growth inhibition at 10 mg/kg, iv measured on three times in week; format: functional; conditions: read-out: TGI
A2780S [45] = test: Antitumor activity against human A2780S cells xenografted in mouse assessed as tumor growth inhibition at 20 mg/kg, iv measured on three times in week; format: functional; conditions: read-out: TGI
A2780S [46] = test: Antitumor activity against human A2780S cells xenografted in mouse assessed as tumor growth inhibition at 40 mg/kg, iv; format: functional; conditions: read-out: TGI
[47] = Toxicity in mouse xenografted with human A2780S cells assessed as body weight loss at 40 mg/kg, iv; format: organism-based; conditions: in vivo
A2780S [48] = test: Antitumor activity against mouse xenografted with human A2780S cell assessed as tumor growth inhibition at 40 mg/kg, po; format: functional; conditions: read-out: TGI
[49] = Toxicity in mouse xenografted with human A2780S cells assessed as body weight loss at 40 mg/kg, po; format: organism-based; conditions: in vivo
HeLa [50] = test: Induction of Alpha/beta tubulin degradation in human HeLa cells measured after 16 hrs by immunoblot analysis; format: cell-based; conditions: dose 0-50 µM
HeLa [51] = test: Induction of Beta tubulin degradation in human HeLa cells at upto 10 uM for 16 hrs by immunoblot analysis; format: cell-based; conditions: dose microM <=10, time 16.0 hrs
K562 = test: Induction of Beta tubulin degradation in human K562 cells at upto 10 uM for 16 hrs by immunoblot analysis; format: cell-based; conditions: dose microM <=10, time 16.0 hrs

SMILES: CC(=O)O[C@H]1C(=O)[C@@]2(C)[C@H]([C@H](OC(=O)c3ccccc3)[C@]3(O)C[C@H](OC(=O)[C@H](O)[C@@H](NC(=O)c4ccccc4)c4ccccc4)C(C)=C1C3(C)C)[C@]1(OC(C)=O)CO[C@@H]1C[C@@H]2O [PACLITAXEL]
IC50 (A2780S [1]): 60.4 nM
IC50 (A2780/Taxol [2]): 58900 nM
IC50 (A549/TR): 802 nM
IC50 (NCI/ADR-RES): 9340 nM
Ratio IC50 [3]: 974.4
Ratio IC50 [4]: 33.1
Ratio IC50 [5]: 289
Activity (A2780S [6]): Active
inhibition in vivo at 20 mg/kg (A2780S [7]): 66.1%
inhibition in vivo at 10 mg/kg (A2780/Taxol [8]): 26.9%
inhibition in vivo at 20 mg/kg (A2780/Taxol [9]): 37.2%
inhibition in vivo at 40 mg/kg (A2780/Taxol [10]): 75.7%
inhibition in vivo at 20 mg/kg (A2780/Taxol [11]): 21.7%

IC50 (MCF7 [14]): 9 nM
IC50 (HeLa [15]): 5 nM
IC50 (Raji): 13 nM
IC50 (NCI-H460): 14 nM
IC50 (A2780S [16]): 8 nM
half-life [20]: 3.57 h
half-life [21]: 4.42 h
clearance [22]: 25.3 mL/min/kg
CL/F [23]: 84.3 mL/min/kg
Vd [24]: 8.08 L/kg
Vdss [25]: 35.26 L/kg
Cmax [26]: 189 ng/mL
Cmax [27]: 2600 ng/mL
bioavailability [28]: 30.7%
Activity (Tubulin (Homo sapiens)): inactive
SMILES: c1cc(CNc2cc3c(cn2)[nH]c2ccccc23)cc(Oc2ccc3c(c2)OCO3)c1
Activity (HeLa [12]): Active
Activity (HeLa [13]): Active
Activity (HeLa [17]): Active
Activity (HeLa [18]): Active
IC50 (A2780S [1]): 16.4 nM
IC50 (A2780/Taxol [2]): 13.1 nM
IC50 (A549): 60.1 nM
IC50 (A549/TR): 63.8 nM
IC50 (MCF7 [19]): 11.3 nM
IC50 (NCI/ADR-RES): 13.5 nM
Ratio IC50 [3]: 0.8
Ratio IC50 [4]: 1.1
Ratio IC50 [5]: 1.2
Activity (A2780S [29]): 55.1%
Activity (A2780/Taxol [30]): 72.18%
Activity (A2780S [31]): 79.54%
Activity (A2780/Taxol [32]): 72.89%
Activity (A2780S [33]): Active
Activity (A2780/Taxol [34]): Active
Activity (A2780S [35]): 3.7%
Activity (A2780S [36]): 25.2%
Activity (A2780S [37]): 30.6%
Activity (HUVEC [38]): 20.8%
Activity (HUVEC [39]): 28.47%
Activity (HUVEC [40]): 76.21%
Activity (HUVEC [41]): 85.07%
Activity (HUVEC [42]): Active
Activity (HUVEC [43]): Active
inhibition in vivo at 10 mg/kg (A2780S [44]): 66.1%
inhibition in vivo at 20 mg/kg (A2780S [45]): 71.5%
inhibition in vivo at 40 mg/kg (A2780S [46]): 92.4%
Activity [47]: Non-Toxic
inhibition in vivo at 40 mg/kg (A2780S [48]): 34.9%
Activity [49]: Toxic
Activity (HeLa [50]): Active
Activity (HeLa [51]): Active
Activity (K562): Active
